“And” between values parts separate entries of the source, which are not always exact repeats. Equal values may be shown once.
Test system: 945468-187-T-J3-PDC spheroids with HUVEC/MSC, viability
Experiment: Anticancer human tumor 945468-187-T-J3-PDC patient-derived rectal carcinoma cell line growth inhibition [PI3K]
Details: for viability, T/C: stronger effect = lower value
How it was run: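 Three cell types, namely tumor cells, endothelial cells and mesenchymal stem cells, formed each spheroid. Combinations with four PI3K inhibitors were screened at clinically achievable concentrations decreasing by half-log, and spheroid viability was recorded.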

[1] = curve of first compound, second compound 0.0316 µM
[2] = curve of first compound, second compound 0.1 µM
[3] = curve of first compound, second compound 0.316 µM
[4] = curve of first compound, second compound 1 µM
[5] = second compound 0.0316 µM, first compound 0.0316 µM
[6] = second compound 0.0316 µM, first compound 0.1 µM
[7] = second compound 0.0316 µM, first compound 0.316 µM
[8] = second compound 0.0316 µM, first compound 1 µM
[9] = second compound 0.0316 µM, first compound 3.16 µM
[10] = second compound 0.0316 µM, first compound 10 µM
[11] = second compound 0.1 µM, first compound 0.0316 µM
[12] = second compound 0.1 µM, first compound 0.1 µM
[13] = second compound 0.1 µM, first compound 0.316 µM
[14] = second compound 0.1 µM, first compound 1 µM
[15] = second compound 0.1 µM, first compound 3.16 µM
[16] = second compound 0.1 µM, first compound 10 µM
[17] = second compound 0.316 µM, first compound 0.0316 µM
[18] = second compound 0.316 µM, first compound 0.1 µM
[19] = second compound 0.316 µM, first compound 0.316 µM
[20] = second compound 0.316 µM, first compound 1 µM
[21] = second compound 0.316 µM, first compound 3.16 µM
[22] = second compound 0.316 µM, first compound 10 µM
[23] = second compound 1 µM, first compound 0.0316 µM
[24] = second compound 1 µM, first compound 0.1 µM
[25] = second compound 1 µM, first compound 0.316 µM
[26] = second compound 1 µM, first compound 1 µM
[27] = second compound 1 µM, first compound 3.16 µM
[28] = second compound 1 µM, first compound 10 µM
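Also: spheroids exposed to agents for 7 days before viability read.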
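For viability, T/C in this document: 100% = DMSO vehicle control viability.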

## CCCS(=O)(=O)Nc1ccc(F)c(C(=O)c2c[nH]c3ncc(-c4ccc(Cl)cc4)cc23)c1F + CC(Nc1ncnc2nc[nH]c12)c1cc2cccc(Cl)c2c(=O)n1-c1ccccc1
[1]
  IC50: 8.2 µM
[2]
  IC50: > 10 µM
[3]
  IC50: > 10 µM
[4]
  IC50: > 10 µM
Curve of first compound, second compound 3.16 µM
  IC50: > 10 µM
Curve of first compound, second compound 10 µM
  IC50: > 10 µM
[5]
  viability, T/C: 100%
[6]
  viability, T/C: 96.7%
[7]
  viability, T/C: 103%
[8]
  viability, T/C: 101%
[9]
  viability, T/C: 99.2%
[10]
  viability, T/C: 39.8%
[11]
  viability, T/C: 104%
[12]
  viability, T/C: 95.8%
[13]
  viability, T/C: 93.8%
[14]
  viability, T/C: 91.3%
[15]
  viability, T/C: 111%
[16]
  viability, T/C: 77.9%
[17]
  viability, T/C: 102%
[18]
  viability, T/C: 101%
[19]
  viability, T/C: 91.7%
[20]
  viability, T/C: 99.3%
[21]
  viability, T/C: 98.3%
[22]
  viability, T/C: 60.6%
[23]
  viability, T/C: 88.6%
[24]
  viability, T/C: 92.8%
[25]
  viability, T/C: 89.4%
[26]
  viability, T/C: 92%
[27]
  viability, T/C: 101%
[28]
  viability, T/C: 68.7%
Second compound 3.16 µM, first compound 0.0316 µM
  viability, T/C: 92.6%
Second compound 3.16 µM, first compound 0.1 µM
  viability, T/C: 91.3%
Second compound 3.16 µM, first compound 0.316 µM
  viability, T/C: 102%
Second compound 3.16 µM, first compound 1 µM
  viability, T/C: 105%
Second compound 3.16 µM, first compound 3.16 µM
  viability, T/C: 105%
Second compound 3.16 µM, first compound 10 µM
  viability, T/C: 56.5%
Second compound 10 µM, first compound 0.0316 µM
  viability, T/C: 91.3%
Second compound 10 µM, first compound 0.1 µM
  viability, T/C: 99.4%
Second compound 10 µM, first compound 0.316 µM
  viability, T/C: 94.8%
Second compound 10 µM, first compound 1 µM
  viability, T/C: 92.2%
Second compound 10 µM, first compound 3.16 µM
  viability, T/C: 105%
Second compound 10 µM, first compound 10 µM
  viability, T/C: 94.1%

## Cn1cnc2c(F)c(Nc3ccc(Br)cc3Cl)c(C(=O)NOCCO)cc21
Compound 0.00949 µM
  viability, T/C: 103% [middle of 4 runs]
Compound 0.03 µM
  viability, T/C: 109% [middle of 4 runs]
Compound 0.0949 µM
  viability, T/C: 116% [middle of 4 runs]
Compound 0.3 µM
  viability, T/C: 119% (2×) and 99.5% and 130%
Compound 0.949 µM
  viability, T/C: 108% [middle of 4 runs]
Curve of compound
  IC50: > 3 µM

## CC(Cn1ccc(-c2ccc(C#N)c(Cl)c2)n1)NC(=O)c1cc(C(C)O)[nH]n1 (stereo not given) + COc1c(OCCCN2CCOCC2)ccc2c3n(c(=NC(=O)c4cnc(N)nc4)nc12)CCN3
Curve of first compound, second compound 0.00316 µM
  IC50: > 10 µM
Curve of first compound, second compound 0.01 µM
  IC50: > 10 µM
[1]
  IC50: > 10 µM
[2]
  IC50: < 0.0316 µM
[3]
  IC50: < 0.0316 µM
[4]
  IC50: < 0.0316 µM
Second compound 0.00316 µM, first compound 0.0316 µM
  viability, T/C: 96.6%
Second compound 0.00316 µM, first compound 0.1 µM
  viability, T/C: 92.7%
Second compound 0.00316 µM, first compound 0.316 µM
  viability, T/C: 95.7%
Second compound 0.00316 µM, first compound 1 µM
  viability, T/C: 88.5%
Second compound 0.00316 µM, first compound 3.16 µM
  viability, T/C: 93.9%
Second compound 0.00316 µM, first compound 10 µM
  viability, T/C: 92.3%
Second compound 0.01 µM, first compound 0.0316 µM
  viability, T/C: 93%
Second compound 0.01 µM, first compound 0.1 µM
  viability, T/C: 96.8%
Second compound 0.01 µM, first compound 0.316 µM
  viability, T/C: 103%
Second compound 0.01 µM, first compound 1 µM
  viability, T/C: 94.8%
Second compound 0.01 µM, first compound 3.16 µM
  viability, T/C: 98.6%
Second compound 0.01 µM, first compound 10 µM
  viability, T/C: 96.5%
[5]
  viability, T/C: 107%
[6]
  viability, T/C: 81%
[7]
  viability, T/C: 95.9%
[8]
  viability, T/C: 95.7%
[9]
  viability, T/C: 109%
[10]
  viability, T/C: 88.2%
[11]
  viability, T/C: 49.1%
[12]
  viability, T/C: 50%
[13]
  viability, T/C: 49.1%
[14]
  viability, T/C: 48.9%
[15]
  viability, T/C: 48.2%
[16]
  viability, T/C: 54.7%
[17]
  viability, T/C: 23.3%
[18]
  viability, T/C: 24.2%
[19]
  viability, T/C: 18.5%
[20]
  viability, T/C: 21.6%
[21]
  viability, T/C: 27.5%
[22]
  viability, T/C: 23.1%
[23]
  viability, T/C: 18.8%
[24]
  viability, T/C: 15.6%
[25]
  viability, T/C: 16.6%
[26]
  viability, T/C: 15.2%
[27]
  viability, T/C: 18.7%
[28]
  viability, T/C: 16.1%

— PubChem BioAssay AID1963968 (Molecular Pharmacology Branch, DTP, NCI, 2024)
